The target in test [1] is T1, ACLY (Homo sapiens (Human), UniProt P53396). Briefly: InCell Pulse assay (permeate HEK293 cells, bind to and stabilize ACLY). It counts as cell-based. Conditions: HEK293 cells transfected with pICP-ACLY(FL)-ePL; 1 hour at 37° C., 55° C. heat pulse 10 minutes; read-out: InCell Pulse IC50 GMean. The method, then:
HEK293 cells transfected for 24 hours with pICP-ACLY(FL)-ePL (3 μg DNA per T25 flask) using FuGene HD (Promega Corp.) were harvested and cryopreserved. On the day of the assay, the frozen transfected cells were thawed at 37° C., and the storage medium (DMEM with 2 mM L-Glutamine, 10% FBS and a final concentration of DMSO 10%) was exchanged with assay medium (OptiMEM; Gibco™, ThermoFischer Scientific). Compounds were 3-fold serially diluted in DMSO over 11-point concentration range. 100 nL of the corresponding dilutions were spotted into the assay plate (Greiner AG; 384 Well, PP, Small Volume, Deep Well, Natural, cat. no. 784201) followed by the addition of 20 μL of cell suspension adjusted with assay medium to 7.5E4 cells/mL. Subsequently, the plates were sealed and incubated for 1 hour at 37° C. Afterwards, the plates were fixed upside down in a rack and incubated in a 55° C. water bath for 10 minutes. Following this heat pulse step, plates were allowed to reach room temperature for 10 minutes and centrifuged for a few seconds at 1000 rpm and room temperature. 25 μL EA detection solution (working solution: 0.0167× InCell EA Reagent, 0.15× InCell Dilution Buffer, 0.167× InCell Lysis Buffer; 0.667× InCell Substrate Reagent; InCell Hunter Detection kit; Eurofins DiscoverX; cat. no. 96-0079) were added to each well. Afterwards, 42 μL were transferred from the assay plate to the detection plate (Corning Inc., 384-well Low Flange Black Flat Bottom Polystyrene NBS Microplate, cat. no. 3575), followed by an incubation for 1 hour at room temperature, a centrifugation step for 1 minute at 1000 rpm and the detection of the luminescence signal using an EnVision microplate reader (Perkin Elmer Inc.). Concentration-response curve-fitting and IC50 determination was performed using Evotec's in-house evaluation software APlus with a four-parameter non-linear regression fit model. Data was normalized to 0.5% (final concentration) DMSO as low/negative control and 1 μM (final concentration) NDI-094311 as high/positive control.

Test [2] has as its target T1, ACLY. Nature of the test: Human ACLY (hACLY) RF/MS activity assay. It counts as biochemical. As to conditions: 1 nM hACLY; 30 min pre-incubation; 15 μM Coenzyme A, 50 μM ATP, 50 μM citrate; CoA to Acetyl-CoA by RF/MS; read-out: RFMS IC50 GMean. How it is done: Compounds of the disclosure were evaluated for their efficacy in inhibiting hACLY using rapid fire mass spectrometry (RF/MS).
The final reaction volume for each compound was 20 μl and consisted of buffer (50 mM Hepes pH 8.0, 10 mM MgCl2, 0.003% BSA, 0.01% Brij35, 50 mM NaCl, 4 mM DTT) and 1 nM hACLY, EV12992, PP6692) using Greiner, 384 well small volume, deep well plates (Cat #784201). A two-fold dilution series with a top concentration of 10 μM was used to record a concentration response curve. Both the substrate (CoA) and product (Acetyl-CoA) were quantified, and given a ratio. […] The final DMSO-concentration was 1% (v/v). Compounds were pre-incubated for 30 min with the buffered enzyme solution at RT (20° C.), and substrate solution was added (final concentrations: 15 μM Coenzyme A, 50 μM ATP and 50 μM citrate) to initiate the enzyme reaction. The enzyme reaction was incubated for additional 30 min at RT. The reaction was quenched upon addition of 40 μl of 5% Formic acid in H2O and centrifuged (4350 rpm at 20° C. for 10 min).
Product formation was quantified using a RF/MS-based method based on mass change of CoA (substrate) to Acetyl-CoA (product).

T1 sequence (P53396 whole entry): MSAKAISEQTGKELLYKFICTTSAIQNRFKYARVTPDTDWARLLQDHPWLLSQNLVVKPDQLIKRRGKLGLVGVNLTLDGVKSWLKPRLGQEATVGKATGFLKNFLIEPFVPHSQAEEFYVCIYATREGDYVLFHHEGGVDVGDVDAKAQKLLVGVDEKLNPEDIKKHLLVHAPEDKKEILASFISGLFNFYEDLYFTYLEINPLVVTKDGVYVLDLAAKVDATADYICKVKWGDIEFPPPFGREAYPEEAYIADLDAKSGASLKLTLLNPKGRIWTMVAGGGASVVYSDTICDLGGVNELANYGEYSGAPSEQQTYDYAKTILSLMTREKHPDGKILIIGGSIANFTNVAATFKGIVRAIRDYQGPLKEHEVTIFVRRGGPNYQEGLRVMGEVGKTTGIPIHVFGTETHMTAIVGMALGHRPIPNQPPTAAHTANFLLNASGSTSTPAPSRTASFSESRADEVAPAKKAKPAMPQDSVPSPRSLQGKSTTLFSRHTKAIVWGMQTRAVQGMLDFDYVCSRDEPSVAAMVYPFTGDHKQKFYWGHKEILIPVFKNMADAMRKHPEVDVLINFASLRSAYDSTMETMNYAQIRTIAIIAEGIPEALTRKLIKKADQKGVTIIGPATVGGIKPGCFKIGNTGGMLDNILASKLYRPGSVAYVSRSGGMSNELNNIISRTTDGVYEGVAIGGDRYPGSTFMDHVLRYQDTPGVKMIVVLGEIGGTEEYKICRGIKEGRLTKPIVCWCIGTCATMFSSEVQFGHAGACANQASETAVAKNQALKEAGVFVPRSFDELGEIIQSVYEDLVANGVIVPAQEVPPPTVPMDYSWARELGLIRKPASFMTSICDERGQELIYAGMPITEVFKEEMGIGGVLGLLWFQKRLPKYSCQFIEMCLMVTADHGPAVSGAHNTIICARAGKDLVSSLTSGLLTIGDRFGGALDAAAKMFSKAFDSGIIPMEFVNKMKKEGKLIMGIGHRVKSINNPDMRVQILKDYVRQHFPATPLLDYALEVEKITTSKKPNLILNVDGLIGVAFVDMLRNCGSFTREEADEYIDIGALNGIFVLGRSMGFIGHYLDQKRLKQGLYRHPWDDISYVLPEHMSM

Usually IC50 stands for the point on the concentration scale where inhibition reaches its midpoint. As to `O=C1OCCCc2ccccc2-c2ccc(F)c(c2)NS(=O)(=O)c2cc1cc(Cl)c2O` [Compound 42, 15-chloro-21-fluoro-16-hydroxy-18,18-dioxo-11-oxa-18λ6-thia-19-azatetracyclo[18.3.1.113,17.02,7]pentacosa-1(23),2(7),3,5,13,15,17(25),20(24),21-nonaen-12-one], the IC50 on ACLY [1] is under 300 nM; at ACLY [2], 20 to 100 nM.
`O=C1OCC2Cc3cccc(c3O2)-c2cc(c(F)cc2F)NS(=O)(=O)c2cc1cc(Cl)c2O` (centres unmarked) [Compound 39, 15-chloro-21,23-difluoro-16-hydroxy-18,18-dioxo-8,11-dioxa-18λ6-thia-19-azapentacyclo[18.3.1.16,9.113,17.02,7]hexacosa-1(23),2(7),3,5,13,15,17(25),20(24),21-nonaen-12-one]: the figures for the IC50 on ACLY [1] and on ACLY [2] were under 300 nM and under 20 nM, respectively.
For `O=C1OCCOc2ccccc2-c2cc(F)c(F)c(c2)NS(=O)(=O)c2cc1cc(Cl)c2O` [Compound 54, 15-chloro-21,22-difluoro-16-hydroxy-18,18-dioxo-8,11-dioxa-18λ6-thia-19-azatetracyclo[18.3.1.113,17.02,7]pentacosa-1(23),2(7),3,5,13(25),14,16,20(24),21-nonaen-12-one], in that order: under 300 nM and under 20 nM.
Turning to `O=C1OCc2ncccc2-c2cc(c(F)cc2F)NS(=O)(=O)c2cc1cc(Cl)c2O` [Compound 88, 13-chloro-19,21-difluoro-14-hydroxy-16,16-dioxo-9-oxa-16λ6-thia-6,17-diazatetracyclo[16.3.1.111,15.02,7]tricosa-1(21),2(7),3,5,11,13,15(23),18(22),19-nonaen-10-one], the results for the IC50 on ACLY [1] and on ACLY [2] were at least 50000 nM and 100 to 10000 nM, respectively.
For `Cc1cc(F)c2cc1-c1ccccc1OCCOC(=O)c1cc(Cl)c(O)c(c1)S(=O)(=O)N2` [Compound 50, 15-chloro-21-fluoro-16-hydroxy-23-methyl-18,18-dioxo-8,11-dioxa-18λ6-thia-19-azatetracyclo[18.3.1.113,17.02,7]pentacosa-1(23),2(7),3,5,13(25),14,16,20(24),21-nonaen-12-one], in that order: under 300 nM and under 20 nM.
In the case of `O=C1NCCOc2ccccc2-c2cc3c(cc2F)CCN3C(=O)c2cc1ccc2O` [Compound 11, 24-fluoro-16-hydroxy-8-oxa-11,19-diazapentacyclo[17.5.2.1^13,17.0^2,7.0^22,26]heptacosa-1(24),2,4,6,13,15,17(27),22,25-nonaene-12,18-dione], at ACLY [2], the IC50 was at least 10000 nM.
Regarding `O=C1OCCOc2ccccc2-c2ccc(F)c(c2)NS(=O)(=O)c2cc1ncc2O` [Compound 66, 21-fluoro-16-hydroxy-18,18-dioxo-8,11-dioxa-18λ6-thia-14,19-diazatetracyclo[18.3.1.113,17.02,7]pentacosa-1(24),2,4,6,13,15,17(25),20,22-nonaen-12-one], on ACLY [2], the IC50 was 20 to 100 nM.
`O=C1OCC2Cc3cccc(c3O2)-c2cc(c(F)cc2F)NS(=O)(=O)c2cc1cc(Cl)c2O` (single isomer, unassigned) [Compound 41, 15-chloro-21,23-difluoro-16-hydroxy-18,18-dioxo-8,11-dioxa-18λ6-thia-19-azapentacyclo[18.3.1.16,9.113,17.02,7]hexacosa-1(23),2(7),3,5,13,15,17(25),20(24),21-nonaen-12-one]: the IC50 at ACLY [1] was under 300 nM.
Take `COc1c(Cl)cc2cc1S(=O)(=O)Nc1cc(ccc1O)-c1ccccc1OCCOC2=O` [Compound 25, 15-chloro-21-hydroxy-16-methoxy-8,11-dioxa-18lambda6-thia-19-azatetracyclo[18.3.1.1^13,17.0^2,7]pentacosa-1(24),2,4,6,13,15,17(25),20,22-nonaene-12,18,18-trione]: the IC50 at ACLY [2] was at least 10000 nM.

These data come from patent US20250289793A1, “MACROCYCLIC INHIBITORS OF ATP CITRATE LYASE” (Esperion Therapeutics, Inc., priority 2022, published 2025).
